The values below come from article PMC8765435, “In Vitro Antimalarial Activity of Inhibitors of the Human GTPase Rac1” (Antimicrobial Agents and Chemotherapy, 2022).

Data set [1] deals with P. falciparum asexual parasites, chloroquine-resistant W2 strain. In words: Drug susceptibility assay (pLDH), asexual parasites, W2 strain. It is filed as cell-based, Plasmodium falciparum. As for the experimental part:
(§1) Chloroquine (CQ)-sensitive (D10, wild-type 3D7, or transgenic 3D7elo1-pfs16-CBG99) and CQ-resistant (W2) strains of P. falciparum were cultured as described previously ([58]), with slight modifications, as detailed in the supplemental material.
(§2) Asexual parasite growth was determined spectrophotometrically (optical density at 650 nm [OD650]) by measuring the activity of parasite lactate dehydrogenase (pLDH), according to a modified version of the method of Makler et al. ([59]). Gametocyte viability was measured by a luminescence method described previously ([60]). Details for the two methods are reported in the supplemental material. From either the OD or ALU (arbitrary luminescence units), the percentages of viability were calculated according to the formula 100 × (treated sample signal − blank signal)/(untreated control signal − blank signal). The blank for the pLDH assay was uninfected RBCs at the same hematocrit as that of parasitized RBCs, and the blank for the luminescence assay was parasites treated with a high dose of methylene blue. […]
(§3) The CQ-sensitive (D10) and the CQ-resistant (W2) strains were maintained at 5% hematocrit […]
(§4) supplemented with 1% AlbuMaxII (lipid-rich bovine serum albumin) (Invitrogen), 0.01% hypoxantine (Sigma), 20mM Hepes (EuroClone), 2 mM glutamine (EuroClone). […]
(§5) In vitro P. falciparum drug susceptibility assay […]
(§6) plate were transferred to a plate containing 100µl of Malstat reagent (0.11% [vol/vol] Triton- […]
(§7) dinucleotide [APAD] [Sigma-Aldrich], adjusted to pH 9 with 1 M HCl) and 25 µl of PES/NBT […]
(§8) pLDHassay. The plate was read at a wavelength of 650 nm using a microplate reader, Synergy4 […]
(§9) Uninfected RBC at the same HCT than parasites were used as blank. […]

The test system of data set [2] is 3D7 immature gametocytes. In words: Gametocyte viability luminescence assay, immature gametocytes. It is filed as cell-based, Plasmodium falciparum. The note with it: 72 h, read-out: Mean IC50 ± SD, 3D7 immature gametocytes. The procedure: as §1, §2
(§10) strain (wild type or transgenic 3D7elo1-pfs16-CBG99 strain) was cultured in similar conditions, except for 10% naturally clotted Human O+ serum instead of AlbuMaxII and human type O-positive instead of A-positive RBCs. […]
(§11) in a standard gas mixture consisting of 1% O2, 5% CO2, 94% N2. Immature (stage II-III) and mature (stage V) gametocytes were obtained as described1. Briefly, cultures were diluted to 0.5% parasitemia at 5% HCT, and the medium was changed daily until parasites were stressed by nutrient deprivation. N-acetylglucosamine (NAG) (Sigma-Aldrich) 50 mM was then added to clear residual asexual parasites: Stage II and III gametocytes were obtained 4 days after NAG addition to the culture, while stage IV and V gametocytes were used 11 to 13 days from NAG addition. Gametocyte stages were routinely checked on Giemsa-stained smears. […]
(§12) Drug treated gametocyte cultures were transferred to 96-well black microplates and D-luciferin (1 mM in citrate buffer 0.1 M, pH 5.5) was added at a 1:1 volume ratio. Luminescence measurements were performed after 10 min with 500 ms integration time. Gametocytes treated

The subject of data set [3] is 3D7 mature gametocytes. The experiment in a line: Gametocyte viability luminescence assay, mature gametocytes. It is filed as cell-based, Plasmodium falciparum. The procedure: as §1, §2, §10, §11, §12
The subject of data set [4] is HMEC-1 human microvascular endothelial cells. In words: Cell cytotoxicity MTT assay. It counts as cell-based. The note with it: for IC50: read-out: Mean HMEC-1 IC50 ± SD; for SI (selectivity index): ratio IC50 against HMEC-1 cells / IC50 against D10 asexual parasites. As for the experimental part: Cytotoxicity was evaluated on human microvascular endothelial cells (HMEC-1) as detailed in the supplemental material. […] Plates were then read on a microplate reader (Synergy 4; BioTek) at a wavelength of 550 nm (reference, 650 nm). […] All tests were performed in duplicate at least three times.
The selectivity index (SI) is the ratio between the cytotoxic IC50 value against HMEC-1 cells and the parasitic IC50 value against the D10 strain and indicates the compound selectivity for the parasite.
Cytotoxicity was evaluated on Human Microvascular Endothelial Cells (HMEC-1) maintained
and 2 mM L-glutamine. Cells were seeded in 96 well flat bottom tissue culture clusters (1.5x104
cells/well), let adhere overnight and treated with serial dilutions of test compounds . […]

The target of data set [5] is T1, Rac1 (Homo sapiens, UniProt P63000). On the set-up: endogenous in cells; method as in PMID 24040362. As to conditions: Rac1 activity in 22Rv1 human prostate cancer cells; cited from earlier work.
Data set [6] has as its system P. falciparum asexual parasites, chloroquine-sensitive D10 strain. The experiment in a line: Drug susceptibility assay (pLDH), asexual parasites, D10 strain. It counts as cell-based, Plasmodium falciparum. The note with it: for antimalarial activity (in words): asexual and sexual P. falciparum parasites. The procedure:
as §1, §2, §3, §4, §5, §6, §7, §8, §9

The test system is the same in data set [7]. Also noted: method as in PMID 33328606. As to conditions: reported previously, read-out: Mean IC50 ± SD, D10; cited from earlier work.
The subject of data set [8] is P. falciparum asexual parasites, chloroquine-resistant W2 strain. Also noted: method as in PMID 33328606. As to conditions: reported previously, read-out: Mean IC50 ± SD, W2; cited from earlier work.
The subject of data set [9] is F3II mammary carcinoma cells. On the set-up: method as in PMID 24066799. As to conditions: F3II mammary carcinoma cell proliferation; cited from earlier work.
For data set [10], the system named is Rac1. Also noted: method as in PMID 17932039. As to conditions: Rac1 activity in U87MG glioma cells; cited from earlier work.
In data set [11] the test system is REF-52 rat embryo fibroblasts. Also noted: method as in PMID 19549603. The note with it: Actin stress fiber formation in REF-52 rat embryo fibroblasts; cited from earlier work.
Data set [12] deals with Rac1. Also noted: method as in PMID 21433368. The note with it: Rac1 activity in EGF-stimulated NIH 3T3 fibroblasts; cited from earlier work.
The subject of data set [13] is Rac1. Also noted: method as in PMID 20008126. The note with it: Rac1 activity in Swiss 3T3 embryonic mouse fibroblasts; cited from earlier work.
In data set [14] the test system is Rac1. On the set-up: method as in PMID 15128949. The note with it: Rac1 activity in PDGF-stimulated NIH 3T3 fibroblasts; cited from earlier work.
The target of data set [15] is T1, Rac1. Also noted: endogenous in cells. The note with it: Rac1 activity in human smooth muscle cells; cited from earlier work.
The mark [16] stands for this setting: Plasmodium falciparum, W2, 72 h, asexual parasites, CQ-resistant W2 strain, 72 h, pLDH, read-out: Mean IC50 ± SD, W2.
Where [17] appears, read: asexual parasites, CQ-resistant W2 strain, 72 h, pLDH, read-out: Mean IC50 ± SD, W2.
Setting [18] is: Plasmodium falciparum, 3D7, stage II-III gametocytes.
Where [19] appears, read: Plasmodium falciparum, 3D7, stage V gametocytes, 72 h, luminescence, read-out: Mean IC50 ± SD, 3D7 mature gametocytes.
The mark [20] stands for this setting: Homo sapiens, HMEC-1, MTT, 72 h.
Where [21] appears, read: stage V gametocytes, 72 h, luminescence, read-out: Mean IC50 ± SD, 3D7 mature gametocytes.
The mark [22] stands for this setting: asexual parasites, CQ-sensitive D10 strain, 72 h, pLDH, read-out: Mean IC50 ± SD, D10.

Structures are written as SMILES. Read-outs that look alike come from different tables or passages of the source.

The term IC50 denotes the point on the concentration scale where inhibition reaches its midpoint. For the compound `Cc1cc2cc(Nc3ccnc(Nc4ccc5[nH]c(C)cc5c4)n3)ccc2[nH]1` [Aza-1], the IC50 in data set [1] (setting [16]) is less than 1 µM; in data set [1] (setting [17]) it was 0.76 ± 0.27 µM; in [2] (setting [18]) it was 1.25 ± 0.48 µM; in [3] (setting [19]) it was 7.23 ± 2.12 µM; in [4] (setting [20]) it was 12.3 ± 6.11 µM; in [5], 5 to 20 µM. The “SI (selectivity index)” value in [4] is 48.9.

As for `CCN(CC)CCCC(C)Nc1ccnc2cc(Cl)ccc12` (stereo not drawn) [Chloroquine], the IC50 turned out to be 0.02 ± 0.003 µM in data set [6] (Plasmodium falciparum, D10, 72 h, read-out: Mean IC50 ± SD, D10) and 0.42 ± 0.08 µM in data set [1] (Plasmodium falciparum, W2, 72 h, read-out: Mean IC50 ± SD, W2).

As for `Cc1cc(C)cc(NC(N)=Nc2ccccc2C(F)(F)F)c1` [Compound 1A116], the half-inhibitory concentration (IC50) in data set [2] (stage II-III gametocytes) was 78.1 ± 17.7 µM; in data set [3] (setting [21]), 56.6 ± 21.3 µM; in [4] (MTT, 72 h) it was 132 ± 37.3 µM; in data set [7], 3.21 ± 1.17 µM; in data set [8], 6.89 ± 1.41 µM; in [9], 4 µM.

What is called melting point is the temperature of the solid-liquid transition. `CC1CCCN(S(=O)(=O)c2ccc(NC(=O)c3cc(-c4ccccc4O)n[nH]3)cc2)C1` (stereo not drawn) [Compound 3] returned a melting point of 254 to 258 °C. In data set [6] (Plasmodium falciparum, D10, 72 h, read-out: Mean IC50 ± SD, D10, asexual parasites, CQ-sensitive D10 strain, 72 h, pLDH), the IC50 is less than 1 µM. The IC50 in data set [6] (read-out: Mean IC50 ± SD, D10, asexual parasites, CQ-sensitive D10 strain, 72 h, pLDH) worked out at 0.66 ± 0.05 µM. Also, the IC50 in data set [1] (Plasmodium falciparum, W2, 72 h, read-out: Mean IC50 ± SD, W2, asexual parasites, CQ-resistant W2 strain, 72 h, pLDH) is less than 1 µM. Besides, the IC50 in data set [1] (read-out: Mean IC50 ± SD, W2, asexual parasites, CQ-resistant W2 strain, 72 h, pLDH) was determined as 0.52 ± 0.02 µM. Also, the IC50 in data set [2] (setting [18]) stood at 2.26 ± 0.22 µM. The IC50 in data set [3] (setting [19]) was 21.9 ± 2.71 µM. In [4] (Homo sapiens, HMEC-1, 72 h), the IC50 was 10.6 ± 1.19 µM.

With `CC1CCCN(S(=O)(=O)c2cccc(NC(=O)c3cc(-c4ccccc4O)n[nH]3)c2)C1` (stereo not drawn) [Compound 3′], the IC50 in [6] (Plasmodium falciparum, D10, 72 h, asexual parasites, CQ-sensitive D10 strain, 72 h, pLDH, read-out: Mean IC50 ± SD, D10) is 2.76 ± 0.12 µM; in data set [1] (setting [16]), 1.24 ± 0.13 µM; in data set [2] (setting [18]), 2.13 ± 0.43 µM; in data set [3] (setting [19]) it was 26.6 ± 3.7 µM; in [4] (setting [20]), 16 ± 0.44 µM. Besides, in data set [4], the “SI (selectivity index)” value was 5.8.

Regarding `O=c1cc(CN2CCOCC2)occ1OCCCCCSc1ccnc2cc(C(F)(F)F)ccc12` [EHT1864], the IC50 in data set [2] (stage II-III gametocytes) was greater than 50 µM; in [3] (setting [21]), 32.6 ± 0.92 µM; in data set [4] (MTT, 72 h), 48.5 ± 1.23 µM; in data set [7], 3.88 ± 0.74 µM; in data set [8], 7.75 ± 1.82 µM; in data set [10], 10 to 50 µM.

For `Cc1cc(/C=c2/sc3nc4ccccc4n3c2=O)c(C)n1-c1ccccc1` [ITX3], the “antimalarial activity (in words)” value in [6] is “no effect”. The IC50 in data set [6] (setting [22]) is greater than 50 µM; in data set [1] (setting [17]) it was greater than 50 µM; in data set [11] it was 50 to 100 µM.

In the case of `COc1ccc(C2CC(c3ccccc3)=NN2c2ccc(S(N)(=O)=O)cc2)cc1` (stereo not drawn) [ML141], the IC50 is 10.7 ± 0.29 µM in data set [6] (setting [22]), 17.3 ± 1.84 µM in data set [1] (setting [17]) and roughly 10 µM in data set [12].

Regarding `O=C(C#Cc1ccccc1)c1cccc([N+](=O)[O-])c1` [MLS000532223], the IC50 is 6.89 ± 0.73 µM in data set [6] (setting [22]), 9.51 ± 1.66 µM in data set [1] (setting [17]) and roughly 10 µM in data set [13].

Regarding `CN(C)c1ccc2nc3ccc(=[N+](C)C)cc-3sc2c1` [Methylene blue], the IC50 in data set [2] (setting [18]) worked out at 0.03 ± 0.01 µM; in data set [3] (setting [19]), 0.12 ± 0.03 µM.

For the compound `CCN(CC)CCCC(C)Nc1nc(C)cc(Nc2ccc3nc(C)cc(N)c3c2)n1` (stereo not drawn) [NSC23766], the IC50 was 5.02 ± 1.47 µM in data set [6] (setting [22]); 4.05 ± 0.5 µM in data set [1] (setting [17]); 15.3 ± 3.7 µM in data set [2] (stage II-III gametocytes); 30.8 ± 3.09 µM in data set [3] (setting [21]); 154 ± 38.5 µM in data set [4] (MTT, 72 h); […] in [14].

With `Cc1ccc(NC(=O)c2cccc(OCc3c(C)noc3C)c2)cc1S(N)(=O)=O` [Rac1 inhibitor II], the IC50 in data set [6] (setting [22]) was 11.9 ± 7.37 µM; in data set [1] (setting [17]) it was 37.5 ± 8.67 µM; in data set [15] it was 12.2 µM.

As for `Cc1cc(C)nc(NS(=O)(=O)c2ccc(NC(=S)NC(=O)COc3ccc(Br)cc3Cl)cc2)n1` [ZCL278], in data set [6], the “antimalarial activity (in words)” value was “not active”. Also, the half-maximal inhibitory concentration (IC50) in data set [6] (setting [22]) was greater than 50 µM; in data set [1] (setting [17]) it was greater than 50 µM; in data set [3] (Table S2, CDC42 inhibitors, read-out: IC50, 3D7 mature gametocytes), 63.5 ± 27.3 µM.

For `Cc1cc(C)nc(N=C(N)Nc2ccccc2C(F)(F)F)n1` [ZINC69391], the IC50 is 17.5 ± 4.64 µM in data set [6] (setting [22]), 12.6 ± 5.25 µM in [1] (setting [17]) and 61 µM in data set [9].
